This assay deals with Mycobacterium tuberculosis. As to the kind of experiment: Antimycobacterial activity against Mycobacterium tuberculosis InhA S94A assessed as reduction in bacterial growth. Type of assay: functional.

Molecules are shown by their SMILES. Values after ≈ are worked out from the molar mass of the structure shown.

Experimental findings from ChEMBL document CHEMBL5230110, “FabI (enoyl acyl carrier protein reductase) - A potential broad spectrum therapeutic target and its inhibitors” (Eur J Med Chem, 2020) are described below.

In general, MIC refers to the lowest concentration found to suppress growth. Turning to `Oc1cc2ccc1Oc1ccc(cc1)CCc1ccc(c(O)c1)Oc1ccc(cc1)CC2`, the MIC amounted to 40 µg/mL (≈ 94.2 µM).

With `CC/C(C)=C1\OC(=O)[C@H](C)[C@H](O)[C@H](Cc2cccnc2)NC(=O)[C@@H](NC(=O)c2ncccc2O)[C@@H](C)OC1=O` [PYRIDOMYCIN], the MIC was 0.3 µg/mL (≈ 0.555 µM).
